The record followed here is patent publication US10836921B2, “Ink, ink cartridge, and ink jet recording method” (CANON KABUSHIKI KAISHA, priority 2016, dated 2020).

Data set [1] can be described thus: Partition coefficient (n-octanol / water), common logarithm. The note with it: for LogPB: highly water-soluble solvent (solvent B); for LogPA: poorly water-soluble alcohol (solvent A); for Log partition coefficient: solvents used in Comparative Examples.
Data set [2] is described as follows: Solubility in water at 20° C. (saturated solubility). Type of data set: physicochemical. How it is done:
As the poorly water-soluble solvent, at least an alcohol having a vapor pressure at 20° C. of 0.5 mmHg or less and a surface tension of 30.0 mN/m or more (hereinafter also called “poorly water-soluble alcohol”) is used.

Data set [3] is described as follows: Vapor pressure at 20° C. Type of data set: physicochemical. How it is done:
(§1) The alcohol used as the poorly water-soluble solvent has a vapor pressure at 20° C. of 0.5 mmHg or less and a surface tension of 30.0 mN/m or more as described above. When a poorly water-soluble alcohol having a vapor pressure at 20° C. of more than 0.5 mmHg forms a film on an ejection opening of a recording head, the film evaporates unfortunately, and the effect of suppressing water evaporation is reduced. In consideration of this point, the poorly water-soluble alcohol preferably has a vapor pressure at 20° C. of 0.2 mmHg or less and more preferably 0.1 mmHg or less. Meanwhile, a poorly water-soluble alcohol having a surface tension of less than 30.0 mN/m has a weak intermolecular force, and thus the poorly water-soluble alcohol cannot form a film even when separated from an ink. In consideration of this point, the poorly water-soluble alcohol preferably has a surface tension of 36.0 mN/m or more. The poorly water-soluble alcohol preferably has a surface tension of 50 mN/m or less.

Data set [4] in a line: Surface tension. Format: physicochemical. How it is done: The present invention will now be more specifically described with reference to preferred embodiments, but the invention is not intended to be limited to the following embodiments. In the present specification, an aqueous ink for ink jet may be simply called “ink”. Physical property values are values determined at normal temperature (25° C.) unless otherwise noted.
as §1

The mark [5] stands for this setting: solvents used in Comparative Examples.

SMILES strings stand for the structures. Read-outs that look alike come from different tables or passages of the source.

For the compound `OCCOCCOCCO` [Triethylene glycol], the LogPB in data set [1] is reported as −1.87. Moreover, in data set [2], the Solubility is reported as ≥ 20 g/100 g-H2O.

Turning to `OCCO` [Ethylene glycol], in data set [1], the LogPB is listed as −1.69.

On to `CC(O)COc1ccccc1` (centres unmarked) [1-Phenoxy-2-propanol], for which the LogPA in data set [1] amounted to 1.51. For the same compound, the Solubility in data set [2] was 1.10 g/100 g-H2O. This compound also had a Vapor pressure in data set [3] of 0.0 mmHg. The same compound yielded a Surface tension in data set [4] of 37.7 mN/m.

In turn, `C=CC(C)(O)CCC=C(C)C` (centres unmarked) [Linalool] had a Solubility in data set [2] (setting [5]) of 1.50 g/100 g-H2O. The Vapor pressure in data set [3] (setting [5]) was found to be 0.2 mmHg. The same compound had a Surface tension in data set [4] (setting [5]) of 26.6 mN/m.

With `O=C1CCCN1` [2-Pyrrolidone], the LogPB in data set [1] is reported as −1.01.

`CC(O)Cc1ccccc1` (centres unmarked) [1-Phenyl-2-propanol]: the LogPA in data set [1] stood at 1.71. Moreover, in data set [2], the Solubility is recorded as 0.58 g/100 g-H2O. The compound also gave a Vapor pressure in data set [3] of 0.1 mmHg. For the same compound, in data set [4], the Surface tension came to 37.3 mN/m.

Regarding `OCCc1ccccc1` [Phenethyl alcohol], the Solubility in data set [2] is 2.20 g/100 g-H2O. The Vapor pressure in data set [3] came out at 0.1 mmHg. In data set [4], the Surface tension was determined as 39.7 mN/m.

As for `COCCOCCO` [Methyl carbitol], the LogPB in data set [1] is −1.16.

For `COc1ccc(C=O)cc1` [p-Anisaldehyde], in data set [2] (setting [5]), the Solubility turned out to be 0.40 g/100 g-H2O. Also, the Vapor pressure in data set [3] (setting [5]) is 0.0 mmHg. Moreover, in data set [4] (setting [5]), the Surface tension is 37.2 mN/m.

Turning to `CCCCCO` [Example 1-Pentanol, 1-Pentanol], the Log partition coefficient in data set [1] is listed as 1.41. For the same compound, the Solubility in data set [2] (setting [5]) came to 2.20 g/100 g-H2O. Besides, in data set [3] (setting [5]), the Vapor pressure worked out at 1.5 mmHg. Further, in data set [4] (setting [5]), the Surface tension is on record as 25.5 mN/m.

As to `OCCOc1ccccc1` [2-Phenoxyethanol], in data set [1], the LogPA was determined as 1.16. In data set [2], this compound showed a Solubility of 2.67 g/100 g-H2O. The compound also returned a Vapor pressure in data set [3] of 0.0 mmHg. In data set [4], this compound came in with a Surface tension of 40.0 mN/m.

In data set [1], `OCCCc1ccccc1` [3-Phenyl-1-propanol] gave a LogPA of 1.88. In data set [2], this compound yielded a Solubility of 0.57 g/100 g-H2O. This compound also yielded a Vapor pressure in data set [3] of 0.0 mmHg. This compound also had a Surface tension in data set [4] of 38.9 mN/m.

For the compound `OCC(O)CO` [Glycerol], the LogPB in data set [1] is on record as −2.32.

`CC(=O)OCc1ccccc1` [Benzyl acetate] gave a Log partition coefficient in data set [1] of 1.84. In data set [2] (setting [5]), this compound had a Solubility of 0.30 g/100 g-H2O. In data set [3] (setting [5]), this compound yielded a Vapor pressure of 0.2 mmHg. Moreover, the Surface tension in data set [4] (setting [5]) stood at 35.9 mN/m.

For `O=CCc1ccccc1` [Phenylacetaldehyde], the Vapor pressure in data set [3] (setting [5]) worked out at 0.4 mmHg. This compound also yielded a Surface tension in data set [4] (setting [5]) of 35.9 mN/m.

As to `CC(O)CO` (centres unmarked) [Propylene glycol], in data set [1], the LogPB is given as −1.34.

`OCc1ccccc1` [Benzyl alcohol]: the LogPA in data set [1] turned out to be 1.03. In data set [2], this compound yielded a Solubility of 4.29 g/100 g-H2O. Further, the Vapor pressure in data set [3] is listed as 0.1 mmHg. The Surface tension in data set [4] was 39.0 mN/m.

As for `OCCCCc1ccccc1` [4-Phenyl-1-butanol], in data set [1], the LogPA is on record as 2.40. This compound also gave a Solubility in data set [2] of 0.10 g/100 g-H2O. Besides, the Vapor pressure in data set [3] came out at 0.0 mmHg. The Surface tension in data set [4] is given as 38.3 mN/m.
